Calls of active or inactive are those of the source.
Assays:
Cysteine protease ATG4B = biological target: T1, Cysteine protease ATG4B (Homo sapiens, UniProt Q9Y4P1); format: functional;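 also: Fluorescence-based dose-response confirmation assay measuring inhibition of ATG4B activity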
T1 sequence (Q9Y4P1 whole entry): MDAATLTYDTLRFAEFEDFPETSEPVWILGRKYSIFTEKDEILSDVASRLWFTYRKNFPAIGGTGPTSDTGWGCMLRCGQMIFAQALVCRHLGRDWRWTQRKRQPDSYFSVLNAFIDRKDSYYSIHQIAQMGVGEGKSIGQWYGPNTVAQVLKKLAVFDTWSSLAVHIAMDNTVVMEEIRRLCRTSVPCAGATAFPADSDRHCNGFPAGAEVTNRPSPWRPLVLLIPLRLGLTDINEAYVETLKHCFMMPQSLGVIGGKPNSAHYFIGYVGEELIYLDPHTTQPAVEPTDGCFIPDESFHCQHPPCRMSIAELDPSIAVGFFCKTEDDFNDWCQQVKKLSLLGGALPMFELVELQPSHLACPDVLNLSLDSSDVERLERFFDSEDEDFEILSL

Phospholipase A2 = Phospholipase A2 (Homo sapiens, UniProt P04054); format: functional;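 also: confirmatory dose-response counterscreen on phospholipase A2, testing hits that came from an ultra-high-throughput screen for ATG4B inhibitors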
Sequence of Phospholipase A2 (P04054 whole entry): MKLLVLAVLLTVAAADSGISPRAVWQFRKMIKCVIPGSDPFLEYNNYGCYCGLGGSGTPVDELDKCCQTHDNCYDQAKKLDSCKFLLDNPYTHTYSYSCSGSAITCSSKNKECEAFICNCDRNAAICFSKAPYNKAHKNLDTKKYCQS

Nonstructural protein 1 = Nonstructural protein 1 (Influenza A virus, UniProt Q194T2); format: functional, Influenza A virus (A/California/07/2009(H1N1))
Sequence of Nonstructural protein 1 (Q194T2 whole entry): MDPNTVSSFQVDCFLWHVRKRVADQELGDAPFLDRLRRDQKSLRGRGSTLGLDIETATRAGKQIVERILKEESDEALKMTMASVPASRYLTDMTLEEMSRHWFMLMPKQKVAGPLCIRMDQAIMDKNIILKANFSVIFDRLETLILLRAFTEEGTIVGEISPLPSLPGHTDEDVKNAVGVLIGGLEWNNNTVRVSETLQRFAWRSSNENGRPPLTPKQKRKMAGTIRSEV

[1] = luciferase reporter signal suppression in cells – H4 neuroglioma cells, luminescence, dose response (AID 1990); format: functional, cell-based
[2] = alpha-synuclein stem-loop luciferase translation blockers – H4 neuroglioma cells, luminescence, confirmation (AID 1988); format: functional, cell-based
[3] = HEK-293T viability loss after treatment – luminescence, T-cell screen hits, cytotoxicity control for TCR NF-kB inhibitor project, dose response (AID 489026); format: functional, cell-based;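 also: cells exposed to compound about 14 hours before the viability readout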
[4] = Luminescence Cell-Based Dose Response HTS to Identify Inhibitors of 5'UTR Stem-Loop Driven Prion Protein mRNA Translation in H4 Neuroglioblastoma Cells. [Related pubchem assays: 1827 (Project Summary), 1813 (Primary HTS)]; format: functional
A-375 [5] = assay: MITF: Counter assay: A375 proliferation Measured in Cell-Based System Using Plate Reader - 2084-03_Inhibitor_Dose_DryPowder_Activity. [Related pubchem assays (depositor defined):AID488944]; format: functional; settings: Homo sapiens
[6] = biological target: T2, Microphthalmia-associated transcription factor (Homo sapiens, UniProt O75030); assay: reducers of TRPM1 reporter luminescence, concentration series – cell-based, SK-MEL-5, cherry-picked, set 3, MITF inhibitor project, dose response (AID 493073); format: functional;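 also: SK-MEL-5 melanoma cells with luciferase driven by the MITF target TRPM1 promoter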
T2 sequence (O75030 whole entry): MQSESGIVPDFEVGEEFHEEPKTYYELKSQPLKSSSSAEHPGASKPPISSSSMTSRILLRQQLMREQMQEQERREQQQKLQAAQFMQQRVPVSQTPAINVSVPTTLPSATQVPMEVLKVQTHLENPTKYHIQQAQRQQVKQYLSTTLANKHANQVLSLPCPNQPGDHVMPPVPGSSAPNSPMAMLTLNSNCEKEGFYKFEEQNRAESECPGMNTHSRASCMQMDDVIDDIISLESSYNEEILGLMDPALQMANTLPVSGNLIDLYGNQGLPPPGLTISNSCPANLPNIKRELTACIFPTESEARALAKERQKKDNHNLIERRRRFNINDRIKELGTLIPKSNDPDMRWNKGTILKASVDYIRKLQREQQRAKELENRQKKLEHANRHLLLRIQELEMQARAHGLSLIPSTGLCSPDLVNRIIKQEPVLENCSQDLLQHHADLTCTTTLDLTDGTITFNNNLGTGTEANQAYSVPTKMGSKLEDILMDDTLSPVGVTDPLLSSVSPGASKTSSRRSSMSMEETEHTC

[7] = biological target: Induced myeloid leukemia cell differentiation protein Mcl-1 (Homo sapiens, UniProt Q07820); format: functional
Sequence of Induced myeloid leukemia cell differentiation protein Mcl-1 (Q07820 whole entry): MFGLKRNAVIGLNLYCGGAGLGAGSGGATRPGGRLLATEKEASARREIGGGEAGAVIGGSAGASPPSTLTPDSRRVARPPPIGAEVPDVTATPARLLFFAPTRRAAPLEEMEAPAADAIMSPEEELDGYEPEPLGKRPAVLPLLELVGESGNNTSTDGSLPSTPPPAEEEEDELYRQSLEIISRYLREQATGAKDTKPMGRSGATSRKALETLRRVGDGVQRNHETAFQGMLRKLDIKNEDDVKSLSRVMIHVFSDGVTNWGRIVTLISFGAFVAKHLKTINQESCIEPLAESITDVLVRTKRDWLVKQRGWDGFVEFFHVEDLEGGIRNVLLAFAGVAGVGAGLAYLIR

A-375 [8] = assay: proliferation inhibition in MITF-low A375 cells – cell-based, cherry-pick samples, set 2, counter-screen for MITF modulator project, dose response (AID 540335); format: functional; settings: Homo sapiens
cells = format: functional
Protein skinhead-1 = biological target: T3, Protein skinhead-1 (Caenorhabditis elegans, UniProt P34707); format: functional
T3 sequence (P34707 whole entry): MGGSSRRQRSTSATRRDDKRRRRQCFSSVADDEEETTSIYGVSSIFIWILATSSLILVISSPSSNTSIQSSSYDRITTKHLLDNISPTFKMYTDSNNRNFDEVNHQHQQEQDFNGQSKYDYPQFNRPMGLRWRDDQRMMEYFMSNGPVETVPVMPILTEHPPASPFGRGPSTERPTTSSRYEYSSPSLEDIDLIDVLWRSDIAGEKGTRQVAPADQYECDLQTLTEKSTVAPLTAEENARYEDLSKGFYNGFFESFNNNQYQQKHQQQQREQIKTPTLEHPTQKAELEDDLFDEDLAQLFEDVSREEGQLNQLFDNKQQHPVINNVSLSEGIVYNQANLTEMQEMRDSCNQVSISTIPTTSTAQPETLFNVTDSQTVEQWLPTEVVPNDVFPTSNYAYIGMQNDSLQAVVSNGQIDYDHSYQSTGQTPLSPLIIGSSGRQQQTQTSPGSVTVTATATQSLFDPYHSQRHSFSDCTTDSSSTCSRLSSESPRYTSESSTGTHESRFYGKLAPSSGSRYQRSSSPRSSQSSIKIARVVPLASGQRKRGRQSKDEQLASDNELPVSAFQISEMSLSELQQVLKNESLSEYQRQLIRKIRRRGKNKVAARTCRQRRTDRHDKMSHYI

Q: For Clc1ccccc1CN1CCN(c2ccccc2Cl)CC1, which IC50 (Cysteine protease ATG4B) is on record?
A: 11.5 µM (active)

Q: What about the IC50 (Phospholipase A2) of the same molecule?
A: 6.52 µM (active)

Q: For Cc1ccccc1/C(O)=C(\C#N)N=Nc1c(C)n(C)n(-c2ccccc2)c1=O, which IC50 (Nonstructural protein 1) is on record?
A: 10.9 µM (active)

Q: Which EC50 [1] does the source give for COC(=O)c1ccc(C)c(NS(=O)(=O)c2ccc3c(c2)OCCO3)c1 here?
A: 8.4 µM (inconclusive)

Q: And the EC50 [2]?
A: 1.3 µM (active)

Q: What about the IC50 [3] of the same molecule?
A: > 80 µM (inactive)

Q: What about the EC50 [4] of the same molecule?
A: 9.9 µM (active)

Q: Which results are given for Oc1c(CN2CCCC2)cc(COCc2ccccc2)c2cccnc12?
A: IC50 (Nonstructural protein 1): 3.78 µM (active); AC50 (A-375 [5]): 32.7 µM (active); AC50 [6]: 6.15 µM (active)

Q: For COC(=O)CSc1ncnc2c1sc1nc(-c3ccco3)c3c(c12)CC(C)(C)OC3, which IC50 [7] is on record?
A: 4.15 µM (active)

Q: Which AC50 (A-375 [8]) does the source give for O=C(N/N=C/C=C/c1ccccc1)c1ccccn1 here?
A: > 35 µM (active)

Q: And the IC50 (cells)?
A: 11.2 µM (active)

Q: And the AC50 (A-375 [5])?
A: > 35 µM (active)

Q: Which IC50 [7] does the source give for CC1CC1C(=O)OCC(=O)Nc1ccc2[nH]c(O)nc2c1 (configuration not stated) here?
A: 5.94 µM (active)

Q: For CCN(CC)c1ccc(C(=S)N2CCN(c3ccccc3)CC2)cc1, which IC50 (Nonstructural protein 1) is on record?
A: > 100 µM (active)

Q: And the IC50 (Protein skinhead-1)?
A: > 100 µM (inactive)

— ChEMBL document CHEMBL1201862, “PubChem BioAssay data set” (2004)
